Numbering of substitutions follows the chain as printed.
Columns and labels:
[1] = target: mouse Mettl9 (recombinant GST-Mettl9) (Mus musculus, UniProt Q9EPL4); experiment: in vitro DNA 6mA methylation, LC-MS/MS; format: biochemical; conditions: biotin-ssDNA or bubbled DNA with GAGG motif 2 uM, SAM or d3-SAM 0.1 mM (which one only in supplement), pH 7.5, 2.5 mM MgCl2, 25 °C; methyl donor
[2] = target: T1, METL-9 (recombinant GST-METL-9) (Caenorhabditis elegans, UniProt Q22123, N172K/D274G); experiment: in vitro DNA 6mA methylation, LC-MS/MS; format: biochemical; conditions: biotin-ssDNA oligo 2 uM, d3-SAM 0.1 mM, HEPES pH 7.5, 2.5 mM MgCl2, 80 mM KCl, 20 °C; methyl donor; labelled compound
T1 sequence (Q22123 1-311 N172K/D274G): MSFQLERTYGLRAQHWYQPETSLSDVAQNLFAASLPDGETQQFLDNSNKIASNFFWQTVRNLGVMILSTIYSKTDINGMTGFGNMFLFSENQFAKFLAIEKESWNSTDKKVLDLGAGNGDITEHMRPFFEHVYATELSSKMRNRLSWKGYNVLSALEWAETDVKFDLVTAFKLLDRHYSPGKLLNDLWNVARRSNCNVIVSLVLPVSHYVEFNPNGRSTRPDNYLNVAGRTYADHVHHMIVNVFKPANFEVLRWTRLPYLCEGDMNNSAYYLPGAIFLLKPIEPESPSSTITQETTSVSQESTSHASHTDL

purified protein = substrate: C[S+](CC[C@H](N)C(=O)O)C[C@H]1O[C@@H](n2cnc3c(N)ncnc32)[C@H](O)[C@@H]1O; experiment: purified protein; conditions: ssDNA oligo 5 uM, varied d3-SAM, HEPES pH 7.5, 2.5 mM MgCl2, 80 mM KCl, 20 °C, methyl donor, labelled compound

Sequence of mouse Mettl9 (recombinant GST-Mettl9) (Q9EPL4 whole entry): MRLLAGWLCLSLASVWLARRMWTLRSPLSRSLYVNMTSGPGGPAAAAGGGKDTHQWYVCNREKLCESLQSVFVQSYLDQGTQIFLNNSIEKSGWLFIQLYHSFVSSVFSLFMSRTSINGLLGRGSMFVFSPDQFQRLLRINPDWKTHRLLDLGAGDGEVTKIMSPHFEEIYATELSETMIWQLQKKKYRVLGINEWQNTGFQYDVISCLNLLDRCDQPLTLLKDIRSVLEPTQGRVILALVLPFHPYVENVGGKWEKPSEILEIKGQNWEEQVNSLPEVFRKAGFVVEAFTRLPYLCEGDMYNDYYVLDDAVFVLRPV

C[S+](CC[C@H](N)C(=O)O)C[C@H]1O[C@@H](n2cnc3c(N)ncnc32)[C@H](O)[C@@H]1O (stereo partly shown) [SAM] was tested. Which “in vitro DNA 6mA methylation, LC-MS/MS” value [1] did it give?
The value was “mouse Mettl9 protein showed 6mA methyltransferase activity towards ssDNA and bubbled DNA”.

C[S+](CC[C@H](N)C(=O)O)C[C@H]1O[C@@H](n2cnc3c(N)ncnc32)[C@H](O)[C@@H]1O (stereo partly shown) [d3-SAM] was tested. Which “in vitro DNA 6mA methylation, LC-MS/MS” value [2] did it give?
The value was “double mutant (M8 + M10, metl-9^mut) almost completely abolished the 6mA methyltransferase activity of METL-9”.

B1: METL-9 (recombinant GST-METL-9) (Caenorhabditis elegans) (protein)
chain: T1 sequence (Q22123 1-311 N172K/D274G) with K172N, G274D
Which Km (purified protein) does the source give for B1 here?
Its Km is 37.69 ± 3.75 µM.

What about the kcat (purified protein) of the same molecule?
The kcat was 4.70 ± 0.21 h⁻¹.

Reference: article PMC10397248, “A novel N^6-Deoxyadenine methyltransferase METL-9 modulates C. elegans immunity via dichotomous mechanisms” (Cell Research, 2023)
